Here are results for 24 molecules from patent publication US20260297042A1, “BIARYLAMIDE DERIVATIVES AND THEIR USE AS PKMYT1 INHIBITORS” (CANCER RESEARCH TECHNOLOGY LIMITED, priority 2023, published 2026).

The term pIC50 denotes the IC50 on a negative log10 scale, so that one unit is a factor of ten. Read a high pIC50 as a small IC50.

One assay has as its target T1, WEE1 (Homo sapiens, UniProt P30291).
T1 construct: purchased Thermo Fisher PR7373A
Kind of assay: Selectivity versus WEE1 assay (ADP-Glo enzymatic assay). It counts as biochemical. As to conditions: for pIC50: ADP-Glo; for PKMYT1 vs. WEE1 selectivity: fold difference in selectivity for PKMYT1 over WEE1. The essentials: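 ADP-Glo luminescence read-out after a 60 min reaction at 26° C, initiated by 30 µM ATP, with 15 nM enzyme in HEPES pH 7.5/MgCl2/EGTA/Brij-35 buffer containing 1% DMSO. Replicate IC50 values had to agree within 3-fold and fits needed r2 >0.9.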

In the next assay the target is T2, Human PKMYT1 (Homo sapiens, UniProt Q99640).
T2 construct: Human PKMYT1 75-362 was cloned as a TEV cleavable 6xHis fusion; 6xHis (TEV cleavable) (cleaved yes); made in house; host or cells: bacterial cells
T2 sequence (Q99640 75-362): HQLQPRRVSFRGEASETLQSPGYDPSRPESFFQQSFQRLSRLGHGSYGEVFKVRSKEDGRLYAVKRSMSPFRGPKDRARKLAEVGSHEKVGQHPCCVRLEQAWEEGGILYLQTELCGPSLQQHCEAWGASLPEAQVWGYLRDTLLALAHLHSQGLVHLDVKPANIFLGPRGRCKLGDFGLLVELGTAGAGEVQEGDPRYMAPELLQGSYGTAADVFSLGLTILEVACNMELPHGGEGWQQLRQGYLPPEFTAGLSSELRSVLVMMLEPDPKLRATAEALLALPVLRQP
Description: PKMYT1 biochemical ADP-Glo enzymatic assay. Conditions: ADP-Glo. The essentials: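 Luminescent ADP-Glo Max read-out of ADP produced by 15 nM PKMYT1 (residues 75-362, bacterial, His-tag removed) from 500 µM ATP without peptide substrate. Reaction: 50 mM HEPES pH 7.5, 10 mM MgCl2, 1 mM EGTA, 0.01% Brij-35, 60 min, 26 °C. IC50 values fitted from 10-point curves.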
(In ADP-Glo the light output rises with the ADP produced.)

Where [1] appears, read: 15 nM WEE1, 60 minutes at 26° C., banded.
The mark [2] stands for this setting: banded, ">N" = at least in this band but could be higher.
The mark [3] stands for this setting: 15 nM PKMYT1 kinase domain, 500 µM ATP, 60 minutes at 26° C., banded.
Setting [4] is: PKMYT1 kinase domain 15 nM, banded values.

pIC50: −log10 of the molar value.

T1 sequence (P30291 whole entry): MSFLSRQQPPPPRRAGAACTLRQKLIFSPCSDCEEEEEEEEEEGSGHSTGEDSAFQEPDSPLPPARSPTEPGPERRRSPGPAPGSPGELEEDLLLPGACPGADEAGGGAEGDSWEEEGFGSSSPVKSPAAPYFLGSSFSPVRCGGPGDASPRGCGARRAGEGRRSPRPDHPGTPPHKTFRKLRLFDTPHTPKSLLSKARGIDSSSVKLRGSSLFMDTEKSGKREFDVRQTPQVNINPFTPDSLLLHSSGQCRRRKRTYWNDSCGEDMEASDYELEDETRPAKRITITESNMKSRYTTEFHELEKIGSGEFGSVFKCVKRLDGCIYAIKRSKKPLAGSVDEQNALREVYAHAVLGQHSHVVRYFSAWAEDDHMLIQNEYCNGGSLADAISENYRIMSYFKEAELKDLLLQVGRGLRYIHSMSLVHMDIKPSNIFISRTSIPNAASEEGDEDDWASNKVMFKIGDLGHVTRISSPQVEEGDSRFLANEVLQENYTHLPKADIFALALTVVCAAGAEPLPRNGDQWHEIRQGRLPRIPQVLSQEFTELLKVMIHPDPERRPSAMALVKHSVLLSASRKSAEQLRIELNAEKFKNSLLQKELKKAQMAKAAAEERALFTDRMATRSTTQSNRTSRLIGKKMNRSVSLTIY

As to `Cc1ccc(O)c(C)c1NC(=O)c1cnc(Nc2cc3ccc(O)cn3n2)s1` [BAA-343, N-(3-Hydroxy-2,6-dimethylphenyl)-2-((6-hydroxypyrazolo[1,5-a]pyridin-2-yl)amino)thiazole-5-carboxamide], the values for the negative logarithm of the IC50 (pIC50) against WEE1 (setting [1]) and on Human PKMYT1 (setting [3]) were 4.96 to 6.00 and 6.00 to 7.30, respectively. Besides, the “PKMYT1 vs. WEE1 selectivity” value at WEE1 (setting [2]) is given as “W (10-<100 fold)”.
The corresponding values for `Cc1ccc(O)c(C)c1NC(=O)c1cnc(Nc2cc(C(F)(F)F)nc(OCC(F)(F)F)n2)s1` [BAA-318, N-(3-hydroxy-2,6-dimethylphenyl)-2-((2-(2,2,2-trifluoroethoxy)-6-(trifluoromethyl)pyrimidin-4-yl)amino)thiazole-5-carboxamide] are < 4.96, 6.00 to 7.30 and “Y (1000-5000 fold)”.
The corresponding values for `Cc1ccc(O)c(C)c1NC(=O)c1cnc(Nc2ccn(CC(=O)N3CCN(C4CC4)CC3)n2)s1` [BAA-182, 2-[[1-[2-(4-cyclopropylpiperazin-1-yl)-2-oxo-ethyl]pyrazol-3-yl]amino]-N-(3-hydroxy-2,6-dimethyl-phenyl)thiazole-5-carboxamide] are < 4.96, > 7.30 and “Y (1000-5000 fold)”.
For the molecule `Cc1ccc(O)c(C)c1NC(=O)c1cnc(Nc2ccn([C@@H]3CCN(C(=O)CC(C)C)C3)n2)s1` [BAA-096, N-(3-hydroxy-2,6-dimethyl-phenyl)-2-[[1-[(3R)-1-(3-methylbutanoyl)pyrrolidin-3-yl]pyrazol-3-yl]amino]thiazole-5-carboxamide], the pIC50 on WEE1 (setting [1]) is < 4.96; against Human PKMYT1 (setting [3]) it was 6.00 to 7.30. Further, the “PKMYT1 vs. WEE1 selectivity” value on WEE1 (setting [2]) is listed as “>Y (1000-5000 fold)”.
In the case of `Cc1cccc(CNc2ncc(C(=O)Nc3c(C)ccc(O)c3C)s2)c1O` [BAA-363, N-(3-hydroxy-2,6-dimethylphenyl)-2-((2-hydroxy-3-methylbenzyl)amino)thiazole-5-carboxamide], the negative logarithm of the IC50 (pIC50) on WEE1 (setting [1]) is < 4.96; on Human PKMYT1 (setting [3]), 6.00 to 7.30. Also, the “PKMYT1 vs. WEE1 selectivity” value on WEE1 (setting [2]) is reported as “X (100-<1000 fold)”.
The corresponding values for `Cc1ccc(O)c(C)c1NC(=O)c1cnc(Nc2ccn([C@@H]3CCN(C(=O)CC(F)(F)F)C3)n2)s1` [BAA-084] are < 4.96, 6.00 to 7.30 and “>Y (1000-5000 fold)”.
The corresponding values for `Cc1ccc(O)c(C)c1NC(=O)c1cnc(Nc2ccn([C@@H]3CCN(C(=O)NCc4ccccc4)C3)n2)s1` [BAA-108, 2-[[1-[(3R)-1-(Benzylcarbamoyl)pyrrolidin-3-yl]pyrazol-3-yl]amino]-N-(3-hydroxy-2,6-dimethyl-phenyl)thiazole-5-carboxamide] are < 4.96, > 7.30 and “>Y (1000-5000 fold)”.
The corresponding values for `Cc1ccc(O)c(C)c1NC(=O)c1cnc(NCc2cccc(O)c2)s1` [BAA-346, N-(3-hydroxy-2,6-dimethylphenyl)-2-((3-hydroxybenzyl)amino)thiazole-5-carboxamide] are < 4.96, > 7.30 and “Y (1000-5000 fold)”.
With `Cc1ccc(O)c(C)c1NC(=O)c1cnc(Nc2c(C)cnn2Cc2cccc(F)c2)s1` [BAA-375, 2-((1-(3-Fluorobenzyl)-4-methyl-1H-pyrazol-5-yl)amino)-N-(3-hydroxy-2,6-dimethylphenyl)thiazole-5-carboxamide], the negative-log IC50 (pIC50) at WEE1 (setting [1]) was < 4.96; against Human PKMYT1 (setting [3]) it was 4.96 to 6.00. Also, the “PKMYT1 vs. WEE1 selectivity” value at WEE1 (setting [2]) is “W (10-<100 fold)”.
The corresponding values for `Cc1ccc(O)c(C)c1NC(=O)c1cnc(Nc2ccn(CCN)n2)s1` [BAA-053, 2-[[1-(2-Aminoethyl)pyrazol-3-yl]amino]-N-(3-hydroxy-2,6-dimethyl-phenyl)thiazole-5-carboxamide] are 4.96 to 6.00, 6.00 to 7.30 and “W (10-<100 fold)”.
With `Cc1ccc(O)c(C)c1NC(=O)c1cnc(Nc2ccn(CC(=O)O)n2)s1` [BAA-059, 2-[3-[[5-[(3-hydroxy-2,6-dimethyl-phenyl)carbamoyl]thiazol-2-yl]amino]pyrazol-1-yl]acetic acid], the values for the negative logarithm of the IC50 (pIC50) on WEE1 (setting [1]) and at Human PKMYT1 (setting [3]) were < 4.96 and > 7.30, respectively. Besides, at WEE1 (setting [2]), the “PKMYT1 vs. WEE1 selectivity” value is listed as “X (100-<1000 fold)”.
As to `COc1ccc(CC(=O)N2CC[C@@H](n3ccc(Nc4ncc(C(=O)Nc5c(C)ccc(O)c5C)s4)n3)C2)cc1` [BAA-089], the negative logarithm of the IC50 (pIC50) against WEE1 (setting [1]) was < 4.96; at Human PKMYT1 (setting [3]), 6.00 to 7.30. The “PKMYT1 vs. WEE1 selectivity” value at WEE1 (setting [2]) is “>X (100-<1000 fold)”.
As for `Cc1ccc(O)c(C)c1NC(=O)c1cnc(NCc2nccs2)s1` [BAA-358, N-(3-hydroxy-2,6-dimethylphenyl)-2-((thiazol-2-ylmethyl)amino)thiazole-5-carboxamide], the pIC50 against WEE1 (setting [1]) was < 4.96; at Human PKMYT1 (setting [3]), 6.00 to 7.30. Moreover, the “PKMYT1 vs. WEE1 selectivity” value at WEE1 (setting [2]) is recorded as “X (100-<1000 fold)”.
For the molecule `COc1cnc(Cl)nc1Nc1ncc(C(=O)Nc2c(C)ccc(O)c2C)s1` [BAA-568, 2-((2-chloro-5-methoxypyrimidin-4-yl)amino)-N-(3-hydroxy-2,6-dimethylphenyl)thiazole-5-carboxamide], the negative logarithm of the IC50 (pIC50) is < 4.96 against WEE1 (WEE1 15 nM, banded values) and > 7.30 against Human PKMYT1 (setting [4]). Besides, the “PKMYT1 vs. WEE1 selectivity” value at WEE1 (banded) is given as “X (100-<1000 fold)”.
Take `COCC(=O)N1CC[C@@H](n2ccc(Nc3ncc(C(=O)Nc4c(C)ccc(O)c4C)s3)n2)C1` [BAA-092]: the results for the pIC50 against WEE1 (setting [1]) and against Human PKMYT1 (setting [3]) were < 4.96 and 6.00 to 7.30, respectively. Further, the “PKMYT1 vs. WEE1 selectivity” value on WEE1 (setting [2]) was “>X (100-<1000 fold)”.
The corresponding values for `Cc1ccc(O)c(C)c1NC(=O)c1cnc(Nc2ccn(CC(=O)N3CCN(C(=O)N(C)C)CC3)n2)s1` [BAA-154] are < 4.96, > 7.30 and “Y (1000-5000 fold)”.
On to `Cc1cc(Nc2ncc(C(=O)Nc3c(C)ccc(O)c3C)s2)n(CCC(N)=O)n1` [BAA-240, 2-((1-(3-amino-3-oxopropyl)-3-methyl-1H-pyrazol-5-yl)amino)-N-(3-hydroxy-2,6-dimethylphenyl) thiazole-5-carboxamide], for which the pIC50 is < 4.96 against WEE1 (setting [1]) and 6.00 to 7.30 at Human PKMYT1 (setting [3]). Moreover, the “PKMYT1 vs. WEE1 selectivity” value on WEE1 (setting [2]) is on record as “X (100-<1000 fold)”.
Take `Cc1ccc(O)c(C)c1NC(=O)c1cnc(Nc2n[nH]c3ccccc23)s1` [BAA-455, 2-((1H-indazol-3-yl)amino)-N-(3-hydroxy-2,6-dimethylphenyl)thiazole-5-carboxamide]: the pIC50 was < 4.96 against WEE1 (WEE1 15 nM, banded values) and 6.00 to 7.30 on Human PKMYT1 (setting [4]). Further, the “PKMYT1 vs. WEE1 selectivity” value on WEE1 (banded) was “X (100-<1000 fold)”.
For the molecule `Cc1cn(C2CN(C(=O)OC(C)(C)C)C2)nc1Nc1ncc(C(=O)Nc2c(C)ccc(O)c2C)s1` [BAA-272, tert-butyl 3-(3-((5-((3-hydroxy-2,6-dimethylphenyl)carbamoyl)thiazol-2-yl)amino)-4-methyl-1H-pyrazol-1-yl)azetidine-1-carboxylate], the values for the pIC50 against WEE1 (setting [1]) and against Human PKMYT1 (setting [3]) were 6.00 to 7.30 and > 7.30, respectively. Besides, the “PKMYT1 vs. WEE1 selectivity” value on WEE1 (setting [2]) is recorded as “W (10-<100 fold)”.
As for `Cc1ccc(O)c(C)c1NC(=O)c1cnc(Nc2ccn(CC(=O)N3CC4C(C3)C4(F)F)n2)s1` (stereo not drawn) [BAA-194], the negative logarithm of the IC50 (pIC50) against WEE1 (setting [1]) is < 4.96; against Human PKMYT1 (setting [3]), > 7.30. At WEE1 (setting [2]), the “PKMYT1 vs. WEE1 selectivity” value is on record as “Y (1000-5000 fold)”.
`Cc1ccc(O)c(C)c1NC(=O)c1cnc(NCCCN2CCN(C)CC2)s1` [BAA-218, N-(3-Hydroxy-2,6-dimethyl-phenyl)-2-[3-(4-methylpiperazin-1-yl)propylamino]thiazole-5-carboxamide]: the results for the pIC50 on WEE1 (setting [1]) and against Human PKMYT1 (setting [3]) were < 4.96 and 4.96 to 6.00, respectively. Besides, the “PKMYT1 vs. WEE1 selectivity” value at WEE1 (setting [2]) was “W (10-<100 fold)”.
The corresponding values for `COc1ccc2cc(Nc3ncc(C(=O)Nc4c(C)ccc(O)c4C)s3)nn2c1` [BAA-242, N-(3-Hydroxy-2,6-dimethylphenyl)-2-((6-methoxypyrazolo[1,5-a]pyridin-2-yl)amino)thiazole-5-carboxamide] are < 4.96, 6.00 to 7.30 and “Y (1000-5000 fold)”.
On to `CCN(CC)C(=O)c1cc(Nc2ncc(C(=O)Nc3c(C)ccc(O)c3C)s2)nn1C` [BAA-545, 2-((5-(diethylcarbamoyl)-1-methyl-1H-pyrazol-3-yl)amino)-N-(3-hydroxy-2,6-dimethylphenyl)thiazole-5-carboxamide], for which the negative-log IC50 (pIC50) was 4.96 to 6.00 against WEE1 (WEE1 15 nM, banded values) and 6.00 to 7.30 on Human PKMYT1 (setting [4]). Also, the “PKMYT1 vs. WEE1 selectivity” value on WEE1 (banded) is given as “W (10-<100 fold)”.
Consider `Cc1ccc(O)c(C)c1NC(=O)c1cnc(Nc2ccn(CC(=O)N3C[C@@H]4C[C@H]3CN4C)n2)s1` [BAA-172], for which the pIC50 against WEE1 (setting [1]) is < 4.96; at Human PKMYT1 (setting [3]), > 7.30. Besides, at WEE1 (setting [2]), the “PKMYT1 vs. WEE1 selectivity” value is “X (100-<1000 fold)”.
